In patent publication US10323000B2, “Indole derivatives and their use in neurodegenerative diseases” (priority 2014, dated 2019):
Where two headings read alike, the source gives them in different places.

How the values were obtained:
human P2X7 receptor = human P2X7 receptor (Homo sapiens (Human), UniProt Q99572); assay: Pore permeation assay (YO PRO dye uptake); assay type: cell-based
[1] = target: P2X7 (IL-1β release from THP-1 cells) (Homo sapiens (Human), UniProt Q99572); assay: IL-1β release assay; assay type: cell-based
Chain of P2X7 (IL-1β release from THP-1 cells) (Q99572 whole entry): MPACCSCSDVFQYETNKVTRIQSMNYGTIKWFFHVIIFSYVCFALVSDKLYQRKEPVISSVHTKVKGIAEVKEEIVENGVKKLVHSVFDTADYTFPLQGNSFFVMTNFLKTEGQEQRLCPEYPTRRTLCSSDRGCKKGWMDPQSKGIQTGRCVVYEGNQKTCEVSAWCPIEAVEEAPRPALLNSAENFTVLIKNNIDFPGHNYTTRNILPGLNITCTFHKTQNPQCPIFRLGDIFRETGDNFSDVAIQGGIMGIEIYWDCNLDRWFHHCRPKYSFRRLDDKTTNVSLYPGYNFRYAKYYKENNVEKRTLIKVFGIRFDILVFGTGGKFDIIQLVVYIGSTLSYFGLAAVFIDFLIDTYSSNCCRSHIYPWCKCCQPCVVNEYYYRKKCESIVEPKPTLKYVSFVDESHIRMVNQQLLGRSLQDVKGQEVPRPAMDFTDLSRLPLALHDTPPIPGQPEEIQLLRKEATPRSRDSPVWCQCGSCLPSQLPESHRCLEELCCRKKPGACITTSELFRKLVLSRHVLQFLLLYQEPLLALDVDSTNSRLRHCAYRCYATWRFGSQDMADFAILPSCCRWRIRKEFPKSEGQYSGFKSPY
Procedure, shortened: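 THP-1 cells were differentiated with PMA 0.5 μM and primed 4 h with LPS 10 ng/ml. They were then pre-incubated 20 min with compound at 37° C and stimulated 30 min with BzATP 0.8 mM. Mature IL-1β released into the supernatant was quantified by sandwich ELISA.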

Chain of human P2X7 receptor (Q99572 whole entry): as above

COCCn1cc(C(=O)NCC2(OC)CCC(F)(F)CC2)c2c(Cl)cccc21 [Compound 17, 4-Chloro-1-(2-methoxy-ethyl)-1H-indole-3-carboxylic acid (4,4-difluoro-1-methoxy-cyclohexylmethyl)-amide]
IC50 (human P2X7 receptor): 10 to 100 nM
IC50 [1]: 101 to 500 nM

O=C(NCC1CCC(F)(F)CC1)c1cn(C2CN(C3CC3)C2)c2cccc(Cl)c12 [Compound 171, 4-chloro-1-(1-cyclopropylazetidin-3-yl)-N-((4,4-difluorocyclohexyl)methyl)-1H-indole-3-carboxamide]
IC50 (human P2X7 receptor): 101 to 500 nM
IC50 [1]: 500 to 999 nM

O=C(NCC1CCC(F)(F)CC1)c1cn(CCN2CCCC2)c2cccc(Cl)c12 [Compound 179, 4-chloro-N-((4,4-difluorocyclohexyl)methyl)-1-(2-(pyrrolidin-1-yl)ethyl)-1H-indole-3-carboxamide]
IC50 (human P2X7 receptor): 101 to 500 nM
IC50 [1]: 101 to 500 nM

O=C(NCC1(O)CCC(F)(F)CC1)c1cn(C2CCCO2)c2cccc(Cl)c12 (centres unmarked) [Compound 98, 4-chloro-N-((4,4-difluoro-1-hydroxycyclohexyl)methyl)-1-(tetrahydrofuran-2-yl)-1H-indole-3-carboxamide]
IC50 (human P2X7 receptor): 101 to 500 nM
IC50 [1]: 101 to 500 nM

O=C(NCC1(O)CCCC(F)(F)C1)c1cn(CCN2CCCC2)c2cccc(Cl)c12 (centres unmarked) [Compound 178, 4-chloro-N-((3,3-difluoro-1-hydroxycyclohexyl)methyl)-1-(2-(pyrrolidin-1-yl)ethyl)-1H-indole-3-carboxamide]
IC50 (human P2X7 receptor): 10 to 100 nM
IC50 [1]: 10 to 100 nM

O=C(NCC1CCCC2(CC2)C1)c1cn(C2COC2)c2cccc(Cl)c12 (centres unmarked) [Compound 68, 4-chloro-1-(oxetan-3-yl)-N-(spiro[2.5]octan-5-ylmethyl)-1H-indole-3-carboxamide]
IC50 (human P2X7 receptor; HEK293 transfected with human P2X7, BzATP 10 uM, YO PRO dye uptake, read-out: hP2X7 IC50): < 10 nM
IC50 [1]: 10 to 100 nM

O=C(NCC1CCC(F)(F)CC1)c1cn(CC2CCNC2)c2cccc(Cl)c12 (centres unmarked) [Compound 160]
IC50 (human P2X7 receptor): 101 to 500 nM
IC50 [1]: 101 to 500 nM

C[C@@H](NC(=O)c1cn(C2CCOC2)c2cccc(Cl)c12)C1C[C@H]2CC[C@@H]1C2 (stereo partly drawn) [Compound 109, 4-Chloro-1-(tetrahydro-furan-3-yl)-1H-indole-3-carboxylic acid ((1R,4S)-1-bicyclo[2.2.1]hept-2-yl-ethyl)-amide]
IC50 (human P2X7 receptor): 101 to 500 nM
IC50 [1]: 500 to 999 nM

O=C(NCC1CCC(F)(F)CC1)c1cn(CC2CCCNC2)c2cccc(Cl)c12 (centres unmarked) [Compound 174, 4-chloro-N-((4,4-difluorocyclohexyl)methyl)-1-(piperidin-3-ylmethyl)-1H-indole-3-carboxamide]
IC50 (human P2X7 receptor): 10 to 100 nM
IC50 [1]: 10 to 100 nM

O=C(NCC1(O)CCCC1)c1cn(C2COC2)c2cccc(Cl)c12 [Compound 81, 4-Chloro-1-oxetan-3-yl-1H-indole-3-carboxylic acid (1-hydroxy-cyclopentylmethyl)-amide]
IC50 (human P2X7 receptor): 101 to 500 nM
IC50 [1]: 500 to 999 nM
